We go through 1 compound from patent US6410249B1, “Odorant receptors” (priority 1999, dated 2002).

The target in the test is T1, receptor 5.24 (Carassius auratus, UniProt Q9PW88).
T1 construct: The receptor 5.24 full length cDNA detects 1-2 bands in genomic DNA blots; expressed in transfected cells; host or cells: HEK 293 cells expressing SV40 large T antigen (293-TSA)
T1 sequence (Q9PW88 25-877): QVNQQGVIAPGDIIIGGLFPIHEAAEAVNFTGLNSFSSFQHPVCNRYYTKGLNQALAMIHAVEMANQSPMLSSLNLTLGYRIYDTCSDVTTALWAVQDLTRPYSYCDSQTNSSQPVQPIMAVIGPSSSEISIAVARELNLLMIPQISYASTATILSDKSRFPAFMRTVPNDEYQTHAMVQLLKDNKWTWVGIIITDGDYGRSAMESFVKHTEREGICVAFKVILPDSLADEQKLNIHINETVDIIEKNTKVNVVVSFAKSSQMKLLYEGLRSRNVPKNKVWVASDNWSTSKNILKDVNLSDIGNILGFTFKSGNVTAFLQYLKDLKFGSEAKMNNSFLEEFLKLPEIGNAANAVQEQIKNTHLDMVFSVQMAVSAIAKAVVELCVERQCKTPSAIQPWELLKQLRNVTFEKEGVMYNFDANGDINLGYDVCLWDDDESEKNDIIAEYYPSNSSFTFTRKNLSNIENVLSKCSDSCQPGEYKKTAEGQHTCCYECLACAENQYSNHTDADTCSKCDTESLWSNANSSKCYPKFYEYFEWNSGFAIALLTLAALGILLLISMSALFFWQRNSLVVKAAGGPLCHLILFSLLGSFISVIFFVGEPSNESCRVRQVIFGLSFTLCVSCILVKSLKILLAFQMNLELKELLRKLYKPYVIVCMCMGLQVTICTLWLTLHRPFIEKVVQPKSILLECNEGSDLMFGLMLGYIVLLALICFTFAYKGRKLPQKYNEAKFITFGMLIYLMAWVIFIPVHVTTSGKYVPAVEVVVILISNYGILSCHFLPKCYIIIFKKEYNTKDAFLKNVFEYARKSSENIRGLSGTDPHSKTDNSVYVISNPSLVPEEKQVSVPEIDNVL
Description: 3H-L-arginine saturation binding to membranes of receptor 5.24-expressing HEK 293 cells. Further details: species or system goldfish. An excerpt:
High-Affinity Binding of Radiolabeled L-Arginine to the Cloned Goldfish Odorant Receptor. To determine the affinity of the cloned goldfish amino acid receptor for basic amino acids, we characterized the ligand-receptor interaction by radiolabeled ligand binding to receptors expressed in mammalian cells. Human embryonic kidney (HEK) 293 cells were transfected with expression plasmids containing the receptor 5.24 cDNA insert. […] We next wished to determine what second messenger pathway receptor 5.24 couples to in HEK 293 cells. Control cells or cells expressing receptor 5.24 were exposed to varying concentrations of arginine and assayed for the accumulation of IP3 and cAMP.
Mammalian Cell Culture and DNA Transfections. For cell transfections, the receptor 5.24 cDNA insert was subcloned into two expression vectors: CMVI, which utilizes a human cytomegalovirus (CMV) immediate early promoter-enhancer plus the CMV intron A sequence to drive expression, and 608RX-2.2L, which is similar to CMVI except the cDNA insert is followed by an internal ribosome entry site (IRES)—enhanced green fluorescent protein (EGFP) coding sequence; 608RX-2.2L also contains a puromycin resistance gene. For transient assays, HEK 293 cells expressing the SV40 large T antigen (293 TSA cells) were transfected with the CMVI-receptor 5.24 or CMVI control plasmid using lipofectamine (Life Technologies) and harvested at 48 hours for membrane preparations. For stable cell lines, 293-TSA cells were transfected with the 608RX-2.2L-receptor 5.24 plasmid or a control 608RX-2.2L plasmid and selected in puromycin. Colonies showing high levels of EGFP fluorescence (as judged by epifluorescence microscopy) were picked, expanded, and screened for 3H-L-arginine binding (see below). In five independent receptor 5.24-transfected stable cell lines, receptor densities (Rt) varied between 0.5 and 6.0 pmol L-arginine binding sites/mg membrane protein. […] All competition binding assays and signal transduction studies were performed using the stable cell line 5.24-20 (Rt=2.0 pmol /mg) and a control cell line (2.2-9) stably transfected with vector alone (Rt=0.03 pmol/mg).
Membrane Preparations and Ligand Binding Assays. Membranes for ligand binding assays were prepared by washing confluent cells three times with phosphate buffered saline (PBS), detaching cells with a PBS-based enzyme-free dissociation solution, and resuspending cells in ice-cold 5.0 mM Hepes, pH 7.4, 1.0 mM EDTA, 1.0 μg/ml leupeptin, 0.5 mM PMSF. All subsequent manipulations were performed on ice. After a 30 min incubation, the cell suspension was homogenized and centrifuged at 100,000×g for 30 min. Cell membrane pellets were washed twice by resuspension and centrifugation in binding buffer (20 mM Hepes, pH 7.4, 1.0 mM EDTA, 2.0 mM MgCl2, 1.0 μg/ml leupeptin, 0.5 mM PMSF), resuspended in binding buffer, and frozen at −80° C.
Saturation binding assays were performed using 20-25 μg of membrane protein in a final volume of 100 μl binding buffer and increasing concentrations of [2,3-3H] L-arginine (specific activity=40 Ci/mmol; Dupont NEN). Non-specific binding was measured in the presence of 500 μM unlabeled L-arginine. Competition assays were performed with 500 nM [2,3-3H] […] Filters were washed three times with 4.0 ml ice cold 20 mM Hepes, pH 7.4, and retained radioactivity was measured by scintillation counting. […] Data were analyzed by nonlinear curve fitting using Origin software (Microcal). […]

Where two headings read alike, the source gives them in different places.

As for `N=C(N)NCCC[C@H](N)C(=O)O` [L-Arginine], the Kd (as a rule, the free concentration of one partner at which half of the binding sites on the other are occupied at equilibrium, for simple one-to-one binding) (mean±SEM, n=4, read-out: dissociation constant (Kd)) amounted to 121 ± 33 nM; the dissociation constant Kd (range of n=4 determinations, read-out: dissociation constant (Kd), range) lay within 52 to 207 nM; the Kd (summary statement, read-out: Kd (high affinity interaction)) is approximately 100 nM. In addition, the Hill coefficient (usually a measure of the steepness of the concentration-response curve) (mean±SEM, n=4 determinations) turned out to be 0.95±0.07.
